Reference: EP4678638A1, “NEW E3 UBIQUITIN LIGASE LIGAND, PROTEIN DEGRADATION AGENT AND USE THEREOF” (priority 2023, dated 2024)

Each compound was assayed against T1, IRAK4 (Homo sapiens, UniProt Q9NWZ3) (assay: Western blot degradation of IRAK4 (hPBMC)). Details: Table D1.
T1 construct: evaluate the effects of the compounds of the present disclosure on the expression of target proteins in cells; endogenous in cells; host or cells: hPBMC
T1 sequence (Q9NWZ3 1-460): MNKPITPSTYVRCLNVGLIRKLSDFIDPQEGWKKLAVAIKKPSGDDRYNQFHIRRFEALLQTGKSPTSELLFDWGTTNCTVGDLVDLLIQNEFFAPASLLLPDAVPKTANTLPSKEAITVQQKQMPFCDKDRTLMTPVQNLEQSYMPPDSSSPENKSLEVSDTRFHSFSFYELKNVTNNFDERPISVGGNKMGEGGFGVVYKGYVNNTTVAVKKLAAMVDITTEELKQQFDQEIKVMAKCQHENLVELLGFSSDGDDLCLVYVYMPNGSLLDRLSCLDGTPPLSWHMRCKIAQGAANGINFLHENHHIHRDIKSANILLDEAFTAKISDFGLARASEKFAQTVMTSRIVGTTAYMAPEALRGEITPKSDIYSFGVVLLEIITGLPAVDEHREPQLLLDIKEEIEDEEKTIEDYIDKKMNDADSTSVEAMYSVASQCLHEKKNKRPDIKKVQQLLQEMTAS
Assay type: cell-based
Protocol: Conventional Western blot assay was performed to evaluate the effects of the compounds of the present disclosure on the expression of target proteins in cells.
(1) Cell Seeding and Protein Harvesting: The selected cells were processed according to the cell seeding procedure and protein harvesting procedure in Table III-2. Table III-2 Cell Seeding and Protein Harvesting Procedures
(2) To the collected supernatant, 5X SDS sample loading buffer was added, followed by denaturation at 95°C for 5 minutes. The denatured samples were then separated by SDS-PAGE electrophoresis on a polyacrylamide gel. Proteins were transferred to a nitrocellulose membrane (0.45 µm NC membrane), blocked with blocking buffer at room temperature for 1 hour, and subjected to antibody incubation and development procedures according to the antibody manufacturer's instructions (Cell Signaling Technology).
Half-Maximal Degradation Concentration value (the drug concentration required for degrading proteins by 50%, abbreviated as DC50) reads method: comparing the grayscale values of Western blot bands from drug-treated samples with those from blank DMSO-treated controls, and identifying the drug concentration range at which the grayscale value is half that of the DMSO-treated control bands.
DC50 values can be calculated using ImageJ software to measure grayscale values of Western blot bands from drug-treated samples. The concentration-response curve is fitted to estimate the drug concentration corresponding to half the grayscale value.
Target protein remaining (%) refers to the percentage of target protein remaining in hPBMC cells after treatment with protein degrader compounds.
Calculation method for target protein remaining (%): Use ImageJ software to measure grayscale values of Western blot bands from drug (protein degrader)-treated samples. The grayscale value of drug-treated bands is divided by that of internal control protein bands, and the resulting quotient is normalized to obtain the relative percentage of remaining target protein after protein degrader treatment.
Target protein degradation rate (%) = 100% - target protein remaining (%).

SMILES	Degradation of substrate protein IRAK4 (substrate protein remaining %)
CC(C)Nc1cc(-n2ccc3cc(C#N)cnc32)ncc1C(=O)NC1CCN(Cc2cncc(N3CCC(=O)NC3=O)c2)CC1 [GT-07410, 6-(5-cyano-1H-pyrrolo[2,3-b]pyridin-1-yl)-N-(1-((5-(2,4-dioxotetrahydropyrimidin-1(2H)-yl)pyridin-3-yl)methyl)piperidin-4-yl)-4-(isopropylamino)nicotinamide]	A (A is defined as 0% ≤ substrate protein remaining % ≤ 80%)
COc1cc2nn(C3CCN(Cc4ccc(N5CCC(=O)NC5=O)cc4F)CC3)cc2cc1NC(=O)c1cccc(C(F)(F)F)c1 [GT-04753, N-(2-(1-(4-(2,4-dioxotetrahydropyrimidin-1(2H)-yl)-2-fluorobenzyl)piperidin-4-yl)-6-methoxy-2H-indazol-5-yl)-3-(trifluoromethyl)benzamide]	A (A is defined as 0% ≤ substrate protein remaining % ≤ 80%)
COc1ccc2cn(C3CCN(Cc4ccc(C5CCC(=O)NC5=O)cc4)CC3)nc2c1NC(=O)c1cccc(C(F)(F)F)c1 (stereo not drawn) [GT-04813, N-(2-(1-(4-(2,6-dioxopiperidin-3-yl)benzyl)piperidin-4-yl)-6-methoxy-2H-indazol-7-yl)-3-(trifluoromethyl)benzamide]	A (A is defined as 0% ≤ substrate protein remaining % ≤ 80%)
O=C1CCC(Nc2cccc(CN3CCN(c4ccc5c(c4)nc(NC(=O)c4cccc(C(F)(F)F)c4)n5[C@H]4CC[C@@H](CO)CC4)CC3)c2)C(=O)N1 (stereo partly drawn) [GT-04985, N-(5-(4-(3-((2,6-dioxopiperidin-3-yl)amino)benzyl)piperazin-1-yl)-1-((1s,4s)-4-(hydroxymethyl)cyclohexyl) -1H-benzo[d]imidazol-2-yl)-3-(trifluoromethyl)benzamide]	A (A is defined as 0% ≤ substrate protein remaining % ≤ 80%)
COc1cc2nn(C3CCN(Cc4ccnc(C5CCC(=O)NC5=O)c4)CC3)cc2cc1NC(=O)c1cccc(C(F)(F)F)c1 (stereo not drawn) [GT-07418, N-(2-(1-((2-(2,6-dioxopiperidin-3-yl)pyridin-4-yl)methyl)piperidin-4-yl)-6-methoxy-2H-indazol-5-yl)-3-(trifluoromethyl)benzamide]	A (A is defined as 0% ≤ substrate protein remaining % ≤ 80%)
COc1cc2nn(C3CCN(Cc4cc(N5CCC(=O)NC5=O)ncc4F)CC3)cc2cc1NC(=O)c1cccc(C(F)(F)F)c1 [GT-07414, N-(2-(1-((2-(2,4-dioxotetrahydropyrimidin-1(2H)-yl)-5-fluoropyridin-4-yl)methyl)piperidin-4-yl)-6-methoxy-2H-indazol-5-yl)-3-(trifluoromethyl)benzamide]	A (A is defined as 0% ≤ substrate protein remaining % ≤ 80%)
COc1cc2nn(C3CCN(Cc4ccc(C5CCC(=O)NC5=O)cc4)CC3)cc2cc1NC(=O)c1cccc(C(F)(F)F)n1 (stereo not drawn) [GT-04761, N-(2-(1-(4-(2,6-dioxopiperidin-3-yl)benzyl)piperidin-4-yl)-6-methoxy-2H-indazol-5-yl)-6-(trifluoromethyl)picolinamide]	A (A is defined as 0% ≤ substrate protein remaining % ≤ 80%)
COc1ccc2cn(C3CCN(Cc4ccc(N5CCC(=O)NC5=O)nc4)CC3)nc2c1NC(=O)c1cccc(C(F)(F)F)c1 [GT-04887, N-(2-(1-((6-(2,4-dioxotetrahydropyrimidin-1(2H)-yl)pyridin-3-yl)methyl)piperidin-4-yl)-6-methoxy-2H-indazol-7-yl)-3-(trifluoromethyl)benzamide]	A (A is defined as 0% ≤ substrate protein remaining % ≤ 80%)
COc1cc2nn(C3CCN(Cc4cccc(N5CCC(=O)NC5=O)c4)CC3)cc2cc1NC(=O)c1cccc(C(F)(F)F)n1 [GT-04774, N-(2-(1-(3-(2,4-dioxotetrahydropyrimidin-1(2H)-yl)benzyl)piperidin-4-yl)-6-methoxy-2H-indazol-5-yl)-6-(trifluoromethyl)picolinamide]	A (A is defined as 0% ≤ substrate protein remaining % ≤ 80%)
